Test results: ChEMBL document CHEMBL5236646, “Design, synthesis, and biological evaluation of BRD4 degraders” (Bioorg Med Chem, 2023)
The source made the active and inactive calls. The rule behind the calls is not given here.

Assays:
[1] = test system: MV4-11; assay: Antiproliferative activity against human […] cells assessed as inhibition of cell growth incubated for 72 hrs MTS assay; format: functional, cell-based; conditions: MV4-11, 72 h
[2] = target: T1, Protein cereblon/Bromodomain-containing protein 4 (Homo sapiens) (UniProt O60885+Q96SW2); assay: Protac activity at CRBN/BRD4 in human MV4-11 cells assessed as induction of BRD4 protein degradation by measuring residual activity at 100 nM measured after 6 hrs by Western blot analysis (reference value: 100%); format: cell-based
[3] = test system: MM1.S; assay: Antiproliferative activity against human MM1.S cells assessed as inhibition of cell growth incubated for 72 hrs MTS assay; format: functional, cell-based
[4] = target: T1, Protein cereblon/Bromodomain-containing protein 4 (Homo sapiens); assay: Protac activity at CRBN/BRD4 in human MV4-11 cells assessed as induction of BRD4 protein degradation by measuring residual activity at 10 nM measured after 6 hrs by Western blot analysis (reference value: 100%); format: cell-based
[5] = target: T1, Protein cereblon/Bromodomain-containing protein 4 (Homo sapiens); assay: Protac activity at CRBN/BRD4 in human MM1.S cells assessed as induction of BRD4 protein degradation by measuring residual activity at 1000 nM measured after 6 hrs by Western blot analysis (reference value: 100%); format: cell-based
[6] = target: T1, Protein cereblon/Bromodomain-containing protein 4 (Homo sapiens); assay: Protac activity at CRBN/BRD4 in human MV4-11 cells assessed as induction of BRD4 protein degradation by measuring residual activity at 0.01 uM incubated for 3 hrs by Western blot analysis relative to control; format: cell-based
[7] = target: T1, Protein cereblon/Bromodomain-containing protein 4 (Homo sapiens); assay: Protac activity at CRBN/BRD4 in human MV4-11 cells assessed as induction of BRD4 protein degradation by measuring residual activity at 0.09 uM incubated for 3 hrs by Western blot analysis relative to control; format: cell-based
[8] = target: T1, Protein cereblon/Bromodomain-containing protein 4 (Homo sapiens); assay: Protac activity at CRBN/BRD4 in human MM1.S cells assessed as induction of BRD4 protein degradation by measuring residual activity at 300 nM measured after 6 hrs by Western blot analysis (reference value: 100%); format: cell-based
[9] = target: T1, Protein cereblon/Bromodomain-containing protein 4 (Homo sapiens); assay: Protac activity at CRBN/BRD4 in human MM1.S cells assessed as induction of BRD4 protein degradation by measuring residual activity at 100 nM measured after 6 hrs by Western blot analysis (reference value: 100%); format: cell-based
[10] = target: T1, Protein cereblon/Bromodomain-containing protein 4 (Homo sapiens); assay: Protac activity at CRBN/BRD4 in human MM1.S cells assessed as induction of BRD4 protein degradation by measuring residual activity at 0.1 uM incubated for 3 hrs by Western blot analysis relative to control; format: cell-based
[11] = target: T1, Protein cereblon/Bromodomain-containing protein 4 (Homo sapiens); assay: Protac activity at CRBN/BRD4 in human MV4-11 cells assessed as induction of BRD4 protein degradation by measuring residual activity at 30 nM measured after 6 hrs by Western blot analysis (reference value: 100%); format: cell-based
[12] = target: T1, Protein cereblon/Bromodomain-containing protein 4 (Homo sapiens); assay: Protac activity at CRBN/BRD4 in human MV4-11 cells assessed as induction of BRD4 protein degradation by measuring residual activity at 0.03 uM incubated for 3 hrs by Western blot analysis relative to control; format: cell-based
[13] = target: T1, Protein cereblon/Bromodomain-containing protein 4 (Homo sapiens); assay: Protac activity at CRBN/BRD4 in human MM1.S cells assessed as downregulation of MYC protein expression at […] incubated for 3 hrs by Western blot analysis; format: cell-based
[14] = target: T1, Protein cereblon/Bromodomain-containing protein 4 (Homo sapiens); assay: Protac activity at CRBN/BRD4 in human MM1.S cells assessed as induction of BRD4 protein degradation by measuring residual activity at 0.03 uM incubated for 3 hrs by Western blot analysis relative to control; format: cell-based
[15] = target: T1, Protein cereblon/Bromodomain-containing protein 4 (Homo sapiens); assay: Protac activity at CRBN/BRD4 in human MM1.S cells assessed as induction of BRD4 protein degradation by measuring residual activity at 0.3 uM incubated for 3 hrs by Western blot analysis relative to control; format: cell-based
[16] = target: T1, Protein cereblon/Bromodomain-containing protein 4 (Homo sapiens); assay: Protac activity at CRBN/BRD4 in human MV4-11 cells assessed as induction of BRD4 protein degradation by measuring residual activity at 0.12 uM incubated for 3 hrs by Western blot analysis relative to control; format: cell-based
[17] = target: T1, Protein cereblon/Bromodomain-containing protein 4 (Homo sapiens); assay: Protac activity at CRBN/BRD4 in human MM1.S cells assessed as induction of BRD4 protein degradation by measuring residual activity at 1.8 uM incubated for 3 hrs by Western blot analysis relative to control; format: cell-based
[18] = target: T1, Protein cereblon/Bromodomain-containing protein 4 (Homo sapiens); assay: Protac activity at CRBN/BRD4 in human MM1.S cells assessed as induction of BRD4 protein degradation by measuring residual activity at 0.2 uM incubated for 3 hrs by Western blot analysis relative to control; format: cell-based
[19] = target: T1, Protein cereblon/Bromodomain-containing protein 4 (Homo sapiens); assay: Protac activity at CRBN/BRD4 in human MV4-11 cells assessed as induction of BRD4 protein degradation by measuring residual activity at 0.36 uM incubated for 3 hrs by Western blot analysis relative to control; format: cell-based
[20] = target: T1, Protein cereblon/Bromodomain-containing protein 4 (Homo sapiens); assay: Protac activity at CRBN/BRD4 in human MM1.S cells assessed as induction of BRD4 protein degradation by measuring residual activity at 0.6 uM incubated for 3 hrs by Western blot analysis relative to control; format: cell-based
[21] = target: T1, Protein cereblon/Bromodomain-containing protein 4 (Homo sapiens); assay: Protac activity at CRBN/BRD4 in human MV4-11 cells assessed as induction of BRD4 protein degradation by measuring residual activity at 0.04 uM incubated for 3 hrs by Western blot analysis relative to control; format: cell-based
[22] = target: T1, Protein cereblon/Bromodomain-containing protein 4 (Homo sapiens); assay: Protac activity at CRBN/BRD4 in human MM1.S cells assessed as induction of BRD4 protein degradation by measuring residual activity at 0.36 uM incubated for 3 hrs by Western blot analysis relative to control; format: cell-based
[23] = target: T1, Protein cereblon/Bromodomain-containing protein 4 (Homo sapiens); assay: Protac activity at CRBN/BRD4 in human MM1.S cells assessed as induction of BRD4 protein degradation by measuring residual activity at 0.04 uM incubated for 3 hrs by Western blot analysis relative to control; format: cell-based
[24] = target: T1, Protein cereblon/Bromodomain-containing protein 4 (Homo sapiens); assay: Protac activity at CRBN/BRD4 in human MM1.S cells assessed as induction of BRD4 protein degradation by measuring residual activity at 0.12 uM incubated for 3 hrs by Western blot analysis relative to control; format: cell-based
[25] = target: T1, Protein cereblon/Bromodomain-containing protein 4 (Homo sapiens); assay: Protac activity at CRBN/BRD4 in human MV4-11 cells assessed as induction of BRD4 protein degradation by measuring residual activity at 0.006 uM incubated for 3 hrs by Western blot analysis relative to control; format: cell-based
[26] = target: T1, Protein cereblon/Bromodomain-containing protein 4 (Homo sapiens); assay: Protac activity at CRBN/BRD4 in human MM1.S cells assessed as induction of BRD4 protein degradation by measuring residual activity at 0.18 uM incubated for 3 hrs by Western blot analysis relative to control; format: cell-based
[27] = target: T1, Protein cereblon/Bromodomain-containing protein 4 (Homo sapiens); assay: Protac activity at CRBN/BRD4 in human MM1.S cells assessed as induction of BRD4 protein degradation by measuring residual activity at 0.06 uM incubated for 3 hrs by Western blot analysis relative to control; format: cell-based
[28] = target: T1, Protein cereblon/Bromodomain-containing protein 4 (Homo sapiens); assay: Protac activity at CRBN/BRD4 in human MV4-11 cells assessed as induction of BRD4 protein degradation by measuring residual activity at 0.054 uM incubated for 3 hrs by Western blot analysis relative to control; format: cell-based
[29] = target: T1, Protein cereblon/Bromodomain-containing protein 4 (Homo sapiens); assay: Protac activity at CRBN/BRD4 in human MM1.S cells assessed as induction of BRD4 protein degradation by measuring residual activity at 0.54 uM incubated for 3 hrs by Western blot analysis relative to control; format: cell-based
[30] = target: T1, Protein cereblon/Bromodomain-containing protein 4 (Homo sapiens); assay: Protac activity at CRBN/BRD4 in human MV4-11 cells assessed as induction of BRD4 protein degradation by measuring residual activity at 0.018 uM incubated for 3 hrs by Western blot analysis relative to control; format: cell-based
[31] = target: T1, Protein cereblon/Bromodomain-containing protein 4 (Homo sapiens); assay: Protac activity at CRBN/BRD4 in human MV4-11 cells assessed as induction of BRD4 protein degradation by measuring residual activity at 0.18 uM incubated for 3 hrs by Western blot analysis relative to control; format: cell-based
[32] = target: T1, Protein cereblon/Bromodomain-containing protein 4 (Homo sapiens); assay: Protac activity at CRBN/BRD4 in human MM1.S cells assessed as induction of BRD4 protein degradation by measuring residual activity at 1 uM incubated for 3 hrs by Western blot analysis relative to control; format: cell-based
[33] = target: T1, Protein cereblon/Bromodomain-containing protein 4 (Homo sapiens); assay: Protac activity at CRBN/BRD4 in human MV4-11 cells assessed as induction of BRD4 protein degradation by measuring residual activity at 0.06 uM incubated for 3 hrs by Western blot analysis relative to control; format: cell-based
[34] = target: T1, Protein cereblon/Bromodomain-containing protein 4 (Homo sapiens); assay: Protac activity at CRBN/BRD4 in human MV4-11 cells assessed as induction of BRD4 protein degradation by measuring residual activity at 0.02 uM incubated for 3 hrs by Western blot analysis relative to control; format: cell-based

T1 sequence (Q96SW2 whole entry, looked up, other chains not shown): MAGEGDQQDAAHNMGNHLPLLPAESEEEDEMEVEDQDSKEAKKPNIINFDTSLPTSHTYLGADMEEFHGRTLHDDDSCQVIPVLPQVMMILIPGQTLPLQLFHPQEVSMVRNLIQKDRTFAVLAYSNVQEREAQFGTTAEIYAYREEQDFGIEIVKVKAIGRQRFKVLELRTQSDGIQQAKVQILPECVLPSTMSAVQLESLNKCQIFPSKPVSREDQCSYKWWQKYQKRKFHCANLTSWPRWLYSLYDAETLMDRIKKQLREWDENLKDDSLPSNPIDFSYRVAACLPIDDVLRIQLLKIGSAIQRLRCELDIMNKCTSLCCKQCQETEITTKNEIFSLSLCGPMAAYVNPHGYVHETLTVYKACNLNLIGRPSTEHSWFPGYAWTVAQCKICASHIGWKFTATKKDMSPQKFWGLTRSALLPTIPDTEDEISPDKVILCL

SMILES | IC50 [1] [nM] | IC50 [3] [nM] | Activity [6] [%] | Activity [7] [%] | Activity [10] [%] | Activity [12] [%] | Activity [14] [%] | Activity [15] [%] | also measured
Cc1sc2c(c1C)C(c1ccc(Cl)cc1)=N[C@@H](CC(=O)NCCCCNC(=O)c1ccc(CNc3cccc4c3C(=O)N(C3CCC(=O)NC3=O)C4=O)cc1)c1nnc(C)n1-2 (stereo not given in full) | 128 | 602 |  |  |  |  |  |  | Activity [16]: 99%; Activity [17]: 139%; Activity [18]: 144%; Activity [19]: 131%; Activity [20]: 141%; Activity [21]: 121%
Cc1sc2c(c1C)C(c1ccc(Cl)cc1)=N[C@@H](CC(=O)NCCCCC(=O)NCc1ccc(CNc3cccc4c3C(=O)N(C3CCC(=O)NC3=O)C4=O)cc1)c1nnc(C)n1-2 (stereo not given in full) | 26 | 131 | 103 | 112 |  | 104 |  |  | Activity [22]: 116%; Activity [23]: 121%; Activity [24]: 125%
Cc1sc2c(c1C)C(c1ccc(Cl)cc1)=N[C@@H](CC(=O)NCCCCC(=O)NCCOc1cccc3c1C(=O)N(C1CCC(=O)NC1=O)C3=O)c1nnc(C)n1-2 (stereo not given in full) | 18 | 163 |  |  |  |  |  |  | Activity [25]: 105%; Activity [26]: 111%; Activity [27]: 90%; Activity [28]: 117%; Activity [29]: 111%; Activity [30]: 105%
Cc1sc2c(c1C)C(c1ccc(Cl)cc1)=N[C@@H](CC(=O)NCCNC(=O)c1ccc(COc3cccc4c3C(=O)N(C3CCC(=O)NC3=O)C4=O)cc1)c1nnc(C)n1-2 (stereo not given in full) | 48 | 544 |  |  | 117 |  |  | 136 | Activity [31]: 82%; Activity [32]: 123%; Activity [33]: 102%; Activity [34]: 126%

More lines, main results first:

IC50 [1] [nM] | IC50 [3] [nM] | Activity [6] [%] | Activity [7] [%] | Activity [10] [%] | Activity [12] [%] | Activity [14] [%] | Activity [15] [%] | SMILES | also measured
13 | 141 | 137 | 48 | 87 | 132 | 109 | 54 | Cc1sc2c(c1C)C(c1ccc(Cl)cc1)=N[C@@H](CC(=O)NCCCCNC(=O)COc1cccc3c1C(=O)N(C1CCC(=O)NC1=O)C3=O)c1nnc(C)n1-2 (stereo not given in full) | Activity [2]: 0%; Activity [4]: 21%; Activity [5]: 40%; Activity [8]: 43%; Activity [9]: 26%; Activity [11]: 14%; Activity [13]: Active
18 | 182 | 141 | 120 | 92 | 141 | 99 | 89 | Cc1sc2c(c1C)C(c1ccc(Cl)cc1)=N[C@@H](CC(=O)NCCNC(=O)c1ccc(COc3cccc4c3CN(C3CCC(=O)NC3=O)C4=O)cc1)c1nnc(C)n1-2 (stereo not given in full) | 
